According to ChEMBL document CHEMBL3991601, “The target landscape of clinical kinase drugs” (Science, 2017):
Active and inactive are the calls of the source. Cut-off read from the data, not from the text of the source, for most assays here: actives have a measured Kd and inactives only a lower limit.

Assays:
[1] = molecular target: T1, Serine/threonine-protein kinase LATS1 (Homo sapiens, UniProt O95835)
T1 sequence (O95835 whole entry): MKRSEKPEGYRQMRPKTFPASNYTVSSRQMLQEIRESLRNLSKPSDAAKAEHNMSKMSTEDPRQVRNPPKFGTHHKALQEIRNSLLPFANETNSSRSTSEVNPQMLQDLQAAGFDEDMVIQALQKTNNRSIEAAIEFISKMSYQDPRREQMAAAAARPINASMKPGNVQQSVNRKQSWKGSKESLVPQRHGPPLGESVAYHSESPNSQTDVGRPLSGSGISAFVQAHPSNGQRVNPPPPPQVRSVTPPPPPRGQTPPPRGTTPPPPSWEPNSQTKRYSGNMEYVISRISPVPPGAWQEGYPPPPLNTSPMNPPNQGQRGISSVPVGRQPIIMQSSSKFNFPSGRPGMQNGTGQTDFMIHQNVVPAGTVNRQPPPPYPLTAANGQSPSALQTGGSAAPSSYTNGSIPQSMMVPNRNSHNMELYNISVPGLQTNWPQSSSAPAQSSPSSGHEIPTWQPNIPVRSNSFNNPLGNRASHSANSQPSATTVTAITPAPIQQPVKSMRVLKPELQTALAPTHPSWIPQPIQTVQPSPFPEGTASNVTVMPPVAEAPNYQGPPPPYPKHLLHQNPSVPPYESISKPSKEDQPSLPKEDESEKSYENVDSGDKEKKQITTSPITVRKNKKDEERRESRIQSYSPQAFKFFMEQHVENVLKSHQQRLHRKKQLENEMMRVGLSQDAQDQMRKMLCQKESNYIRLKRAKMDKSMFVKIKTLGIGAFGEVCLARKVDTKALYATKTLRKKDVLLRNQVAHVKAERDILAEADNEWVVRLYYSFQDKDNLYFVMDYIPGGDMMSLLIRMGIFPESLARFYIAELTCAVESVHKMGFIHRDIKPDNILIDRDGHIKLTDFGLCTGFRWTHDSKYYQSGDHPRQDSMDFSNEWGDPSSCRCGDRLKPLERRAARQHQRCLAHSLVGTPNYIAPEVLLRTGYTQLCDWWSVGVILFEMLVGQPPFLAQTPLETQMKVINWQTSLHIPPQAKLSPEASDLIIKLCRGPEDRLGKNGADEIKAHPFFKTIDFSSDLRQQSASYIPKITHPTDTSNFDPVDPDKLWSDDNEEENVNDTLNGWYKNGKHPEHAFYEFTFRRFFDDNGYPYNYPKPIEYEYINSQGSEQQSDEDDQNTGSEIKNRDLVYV

[2] = molecular target: T2, Signal recognition particle receptor subunit alpha (Homo sapiens, UniProt P08240)
T2 sequence (P08240 whole entry): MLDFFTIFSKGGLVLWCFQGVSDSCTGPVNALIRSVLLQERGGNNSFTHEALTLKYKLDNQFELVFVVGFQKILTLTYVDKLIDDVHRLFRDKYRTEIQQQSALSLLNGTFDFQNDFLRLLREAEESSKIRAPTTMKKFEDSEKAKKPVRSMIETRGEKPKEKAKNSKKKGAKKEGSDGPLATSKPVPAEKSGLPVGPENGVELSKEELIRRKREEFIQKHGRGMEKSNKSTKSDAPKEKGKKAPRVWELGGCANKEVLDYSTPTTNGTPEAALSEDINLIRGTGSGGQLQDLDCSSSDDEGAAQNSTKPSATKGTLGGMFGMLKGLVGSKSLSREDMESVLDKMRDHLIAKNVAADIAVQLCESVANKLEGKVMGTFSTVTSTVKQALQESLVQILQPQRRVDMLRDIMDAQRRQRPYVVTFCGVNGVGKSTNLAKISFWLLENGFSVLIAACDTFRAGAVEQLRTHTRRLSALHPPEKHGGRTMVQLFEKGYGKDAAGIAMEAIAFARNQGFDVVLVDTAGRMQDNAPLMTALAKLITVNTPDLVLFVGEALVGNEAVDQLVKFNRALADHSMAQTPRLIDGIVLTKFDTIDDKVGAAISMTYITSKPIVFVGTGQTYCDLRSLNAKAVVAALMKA

[3] = molecular target: Protein kinase C alpha type (Homo sapiens, UniProt P17252)
[4] = molecular target: Mitogen-activated protein kinase kinase kinase 20 (Homo sapiens, UniProt Q9NYL2)
Chain of Mitogen-activated protein kinase kinase kinase 20 (Q9NYL2 whole entry): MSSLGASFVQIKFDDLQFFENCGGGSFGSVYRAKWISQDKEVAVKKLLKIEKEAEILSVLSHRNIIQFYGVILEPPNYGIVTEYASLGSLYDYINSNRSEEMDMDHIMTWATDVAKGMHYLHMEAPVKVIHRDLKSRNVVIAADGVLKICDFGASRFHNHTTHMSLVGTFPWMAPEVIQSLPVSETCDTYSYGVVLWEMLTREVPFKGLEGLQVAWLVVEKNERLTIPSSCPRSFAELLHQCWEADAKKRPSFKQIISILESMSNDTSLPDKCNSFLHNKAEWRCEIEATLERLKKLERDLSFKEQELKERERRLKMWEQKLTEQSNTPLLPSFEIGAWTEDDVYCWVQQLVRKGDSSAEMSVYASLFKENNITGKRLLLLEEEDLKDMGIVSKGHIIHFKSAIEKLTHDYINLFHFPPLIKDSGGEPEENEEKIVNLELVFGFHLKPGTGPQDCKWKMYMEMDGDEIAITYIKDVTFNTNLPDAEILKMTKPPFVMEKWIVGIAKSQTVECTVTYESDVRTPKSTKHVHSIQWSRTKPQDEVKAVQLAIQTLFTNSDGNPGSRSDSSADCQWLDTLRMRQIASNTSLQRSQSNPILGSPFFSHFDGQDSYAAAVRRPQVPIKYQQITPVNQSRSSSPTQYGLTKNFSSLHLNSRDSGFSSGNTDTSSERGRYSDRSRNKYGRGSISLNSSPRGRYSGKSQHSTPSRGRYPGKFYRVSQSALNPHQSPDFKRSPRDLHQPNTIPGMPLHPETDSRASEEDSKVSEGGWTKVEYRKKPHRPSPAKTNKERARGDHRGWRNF

[5] = molecular target: Tyrosine-protein kinase FRK (Homo sapiens, UniProt P42685)
Chain of Tyrosine-protein kinase FRK (P42685 whole entry): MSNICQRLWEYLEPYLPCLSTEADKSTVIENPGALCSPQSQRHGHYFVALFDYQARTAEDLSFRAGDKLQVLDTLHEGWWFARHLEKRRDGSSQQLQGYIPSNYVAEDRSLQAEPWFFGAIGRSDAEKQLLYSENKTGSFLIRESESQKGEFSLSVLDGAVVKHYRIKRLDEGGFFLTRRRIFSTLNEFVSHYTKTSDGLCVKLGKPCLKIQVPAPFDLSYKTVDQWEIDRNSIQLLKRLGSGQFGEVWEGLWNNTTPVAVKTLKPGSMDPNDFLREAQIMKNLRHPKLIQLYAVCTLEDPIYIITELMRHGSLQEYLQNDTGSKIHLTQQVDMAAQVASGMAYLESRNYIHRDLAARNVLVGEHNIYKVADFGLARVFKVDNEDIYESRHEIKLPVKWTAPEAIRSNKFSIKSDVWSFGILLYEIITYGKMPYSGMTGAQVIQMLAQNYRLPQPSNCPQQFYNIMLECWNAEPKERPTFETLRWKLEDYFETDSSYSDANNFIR

[6] = molecular target: GTP-binding nuclear protein Ran (Homo sapiens, UniProt P62826)
Activin receptor type-2B = Activin receptor type-2B (Homo sapiens, UniProt Q13705)
Chain of Activin receptor type-2B (Q13705 whole entry): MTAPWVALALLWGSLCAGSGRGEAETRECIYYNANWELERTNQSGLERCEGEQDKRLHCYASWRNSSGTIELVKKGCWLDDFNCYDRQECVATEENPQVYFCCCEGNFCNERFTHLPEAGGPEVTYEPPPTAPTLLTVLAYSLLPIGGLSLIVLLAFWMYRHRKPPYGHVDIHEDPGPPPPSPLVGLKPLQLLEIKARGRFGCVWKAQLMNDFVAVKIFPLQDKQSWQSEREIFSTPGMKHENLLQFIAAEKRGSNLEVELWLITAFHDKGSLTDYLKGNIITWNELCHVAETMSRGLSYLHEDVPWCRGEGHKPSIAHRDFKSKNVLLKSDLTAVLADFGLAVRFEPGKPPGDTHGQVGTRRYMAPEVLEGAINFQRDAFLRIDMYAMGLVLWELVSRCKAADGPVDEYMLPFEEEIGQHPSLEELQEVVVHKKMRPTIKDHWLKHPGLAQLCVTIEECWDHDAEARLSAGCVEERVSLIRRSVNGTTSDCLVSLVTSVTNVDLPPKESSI

Ephrin type-B receptor 2 = molecular target: T3, Ephrin type-B receptor 2 (Homo sapiens, UniProt P29323)
T3 sequence (P29323 whole entry): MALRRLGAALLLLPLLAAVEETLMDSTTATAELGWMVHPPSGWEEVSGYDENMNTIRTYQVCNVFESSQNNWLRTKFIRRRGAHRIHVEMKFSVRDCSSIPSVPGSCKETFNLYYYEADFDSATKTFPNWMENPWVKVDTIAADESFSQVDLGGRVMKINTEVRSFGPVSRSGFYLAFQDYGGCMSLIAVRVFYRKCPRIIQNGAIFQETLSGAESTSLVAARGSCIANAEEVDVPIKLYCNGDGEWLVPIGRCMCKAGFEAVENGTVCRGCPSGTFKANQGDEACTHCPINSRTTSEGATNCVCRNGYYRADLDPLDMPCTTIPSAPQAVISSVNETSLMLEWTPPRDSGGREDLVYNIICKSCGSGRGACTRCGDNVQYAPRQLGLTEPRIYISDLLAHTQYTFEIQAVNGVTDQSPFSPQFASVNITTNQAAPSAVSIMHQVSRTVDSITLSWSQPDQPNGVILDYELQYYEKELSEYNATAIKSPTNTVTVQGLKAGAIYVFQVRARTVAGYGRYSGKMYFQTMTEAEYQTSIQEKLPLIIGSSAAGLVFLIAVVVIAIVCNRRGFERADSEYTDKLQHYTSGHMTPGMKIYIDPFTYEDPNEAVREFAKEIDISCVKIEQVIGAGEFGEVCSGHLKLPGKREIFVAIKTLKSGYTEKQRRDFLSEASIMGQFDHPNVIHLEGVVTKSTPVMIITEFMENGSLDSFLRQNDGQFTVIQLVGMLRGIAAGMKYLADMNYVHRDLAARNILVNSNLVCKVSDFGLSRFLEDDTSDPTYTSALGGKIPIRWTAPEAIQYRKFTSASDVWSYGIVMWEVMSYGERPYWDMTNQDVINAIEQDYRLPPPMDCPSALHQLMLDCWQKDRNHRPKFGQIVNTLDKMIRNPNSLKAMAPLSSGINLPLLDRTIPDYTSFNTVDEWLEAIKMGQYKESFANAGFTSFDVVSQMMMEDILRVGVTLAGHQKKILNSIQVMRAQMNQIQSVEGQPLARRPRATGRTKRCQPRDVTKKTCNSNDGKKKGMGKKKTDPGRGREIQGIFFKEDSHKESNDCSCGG
Note: in the data inactive means no Kd found up to 30 µM.

SMILES	Kd [1]	Kd [2]	Kd [3]	Kd [4]	Kd [5]	Kd [6]	Kd (Activin receptor type-2B)	Kd (Ephrin type-B receptor 2)
O=C(O)c1ccc2c(c1)nc(Nc1cccc(Cl)c1)c1ccncc12 [SILMITASERTIB]	> 30 µM (inactive)	> 30 µM (inactive)	> 30 µM (inactive)	> 30 µM (inactive)	> 30 µM (inactive)	> 30 µM (inactive)	> 30 µM (inactive)	> 30 µM (inactive)
CC[C@@](C)(Nc1ccnc(-c2c[nH]c3ncccc23)n1)C(=O)NCC(F)(F)F [DECERNOTINIB]	> 30 µM (inactive)	> 30 µM (inactive)	0.117 µM (active)	> 30 µM (inactive)	> 30 µM (inactive)	> 30 µM (inactive)	> 30 µM (inactive)	> 30 µM (inactive)
CCc1cc2c(cc1N1CCC(N3CCOCC3)CC1)C(C)(C)c1[nH]c3cc(C#N)ccc3c1C2=O [ALECTINIB]	> 30 µM (inactive)	> 30 µM (inactive)	> 30 µM (inactive)	> 30 µM (inactive)	> 30 µM (inactive)	> 30 µM (inactive)	> 30 µM (inactive)	> 30 µM (inactive)
C=CCn1c(=O)c2cnc(Nc3ccc(N4CCN(C)CC4)cc3)nc2n1-c1cccc(C(C)(C)O)n1 [ADAVOSERTIB]	> 30 µM (inactive)	> 30 µM (inactive)	> 30 µM (inactive)	> 30 µM (inactive)	> 30 µM (inactive)	> 30 µM (inactive)	> 30 µM (inactive)	> 30 µM (inactive)
COCCN1CCN(Cc2ccc(-c3n[nH]c4c3C(=O)c3c(NC(=O)NN5CCOCC5)cccc3-4)cc2)CC1 [RGB-286638]	> 30 µM (inactive)	> 30 µM (inactive)	> 30 µM (inactive)	1.11 µM (active)	> 30 µM (inactive)	> 30 µM (inactive)	> 30 µM (inactive)	> 30 µM (inactive)
COc1cc2ncnc(Nc3ccc(F)c(Cl)c3)c2cc1NC(=O)/C=C/CN1CCCCC1 [DACOMITINIB ANHYDROUS]	> 30 µM (inactive)	> 30 µM (inactive)	> 30 µM (inactive)	> 30 µM (inactive)	> 30 µM (inactive)	> 30 µM (inactive)	> 30 µM (inactive)	> 30 µM (inactive)
C#Cc1cccc(Nc2ncnc3cc4c(cc23)OCCOCCOCCO4)c1 [ICOTINIB]	> 30 µM (inactive)	> 30 µM (inactive)	> 30 µM (inactive)	> 30 µM (inactive)	> 30 µM (inactive)	> 30 µM (inactive)	> 30 µM (inactive)	> 30 µM (inactive)
Cc1c(Cn2c(C)nc3c(C(=O)O)cc(N4CCOCC4)cc32)cccc1C(F)(F)F [GSK-2636771]	> 30 µM (inactive)	> 30 µM (inactive)	> 30 µM (inactive)	> 30 µM (inactive)	> 30 µM (inactive)	> 30 µM (inactive)	> 30 µM (inactive)	> 30 µM (inactive)
CNC(=O)c1cccc(-c2ccc3c(N4CCOC[C@@H]4C)nc(N4CCOC[C@@H]4C)nc3n2)c1 [VISTUSERTIB]	> 30 µM (inactive)	> 30 µM (inactive)	> 30 µM (inactive)	> 30 µM (inactive)	> 30 µM (inactive)	> 30 µM (inactive)	> 30 µM (inactive)	> 30 µM (inactive)

Other lines, results leading:

Kd [1]	Kd [2]	Kd [3]	Kd [4]	Kd [5]	Kd [6]	Kd (Activin receptor type-2B)	Kd (Ephrin type-B receptor 2)	SMILES
> 30 µM (inactive)	> 30 µM (inactive)	> 30 µM (inactive)	> 30 µM (inactive)	> 30 µM (inactive)	> 30 µM (inactive)	> 30 µM (inactive)	> 30 µM (inactive)	COc1ccc2c(OCc3nnc4ccc(-c5ccccc5)nn34)ccnc2c1 [AMG-208]
> 30 µM (inactive)	> 30 µM (inactive)	> 30 µM (inactive)	> 30 µM (inactive)	> 30 µM (inactive)	> 30 µM (inactive)	> 30 µM (inactive)	> 30 µM (inactive)	CC(C)(O)CC(=O)NCCn1ccc2ncnc(Nc3ccc(Oc4cccc(C(F)(F)F)c4)c(Cl)c3)c21 [TAK-285]
